Data reported in US7727933B2, “2-ethyl-4,6-dimethyl-phenyl-substituted spirocyclic tetramic acid derivatives” (Bayer CropScience AG, priority 2003, dated 2010).

Experiments:
Format in all cases: in vivo
Avena sativa = test: Herbicidal post-emergence action (Example A); settings: 320 g of a.i./ha, rated visually after about 3 weeks, 100% = plants have died
Method: (§1) Seeds of monocotyledonous and dicotyledonous weed and crop plants are placed into sandy loam in wood fibre pots, covered with soil and cultivated in a greenhouse under good growth conditions. 2-3 weeks after sowing, the test plants are treated at the one-leaf stage. The test compounds, formulated as wettable powders (WP), are, in various dosages with a water application rate of 600 l/ha (converted), with 0.2% of wetting agent added, sprayed onto the green parts of the plants. After the test plants were kept in the greenhouse under optimum growth conditions for about 3 weeks, the effect of the preparations is rated visually in comparison to untreated controls (herbicidal effect in percent (%): 100% effect=the plants have died, 0% effect=like control plants).

Lolium = test: Herbicidal post-emergence action (Example A); settings: 320 g of a.i./ha, rated visually after about 3 weeks, 100% = plants have died
Method: as §1

Setaria = test: Herbicidal post-emergence action (Example A); settings: 320 g of a.i./ha, rated visually after about 3 weeks, 100% = plants have died
Method: as §1

Summer barley = test: Herbicidal post-emergence action with use of safeners (Example B), crop plant compatibility; settings: without safener, rated 3-4 weeks after treatment
Method: Seeds of monocotyledonous and dicotyledonous weed and crop plants are placed into sandy loam in wood fibre pots or in plastic pots, covered with soil and cultivated in a greenhouse, during the vegetation period also outdoors outside of the greenhouse, under good growth conditions. 2-3 weeks after sowing, the test plants are treated at the one- to three-leaf stage. The test compounds, formulated as wettable powders (WP) or emulsifiable concentrates (EC) are, in various dosages with a water application rate of 300 l/ha (converted), with wetting agent (0.2 to 0.3%) added, sprayed onto the plants and the surface of the soil. 3-4 weeks after the treatment of the test plants, the effect of the preparations is rated visually in comparison to untreated controls (herbicidal effect in percent (%): 100% effect=the plants have died, 0% effect=like control plants). […]

**Q.** What does the source list for CCc1cc(C)cc(C)c1C1=C(OC(=O)COC)C2(CCC(OC)CC2)NC1=O (centres unmarked) [Ex. I-b-1]?
**A.** herbicidal effect in percent, Avena sativa (Avena sativa): 100%; herbicidal effect in percent, Lolium (Lolium): 100%; herbicidal effect in percent, Setaria (Setaria): 90%; Summer barley observed (%) (Summer barley; 12.5 g of a.i./ha): 65%; Summer barley observed (%) (Summer barley; 25 g of a.i./ha): 93%
